Laboratory results: patent US11090317B2, “Aminophosphinic derivatives for preventing and treating eye inflammation” (priority 2017, dated 2021)
Entries after “also recorded” stand apart in the source; their conditions may differ.

How the values were obtained:
[1] = system: Iba1 (ionized calcium binding adaptor molecule 1); assay: Iba1 immuno-histology in trigeminal ganglion, inflammatory keratitis model induced by LPS; type: in vivo, mice; details: LPS inflammation model; twice-daily instillation of 10 mM for 5 days
Description: (§1) ATF3 (activating transcription factor 3) is a transcription factor of the family of ATF which modulates the inflammatory response of several diseases. In physiological conditions, the primary sensory neurones express very little ATF3. An increase in the number of positive neurones for ATF-3 then underlines neuronal suffering linked to an inflammatory process. In the same way, Iba1 (ionized calcium-binding adapter molecule 1) is expressed in the microglial cells activated by the presence of macrophages and thus by an inflammatory process.
(§2) Two hours after the final instillation of LPS, a mixture of 300 μL of ketamine […] (100 mg/kg of body weight) and xylazine (10 mg/kg of body weight, Virbac, France) was injected by intraperitoneal route to deeply anaesthetise the animals. After fixation, the trigeminal ganglia and the eyes were carefully dissected and post-fixated for 48 h in the same fixation mixture. Sections (40 μm) of the complex of the trigeminal sub-nucleus ([…]) were formed using a Vibratom (Leica Microsystems, Germany). The TG were placed in a 10% solution of sucrose in 1×PBS (overnight), then in a 30% solution of sucrose before freezing at −20° C. in a mixture of 7.5% gelatine and 10% sucrose. Sections (14 μm) were made in the cryostat for the TG and the eyes and conserved at −20° C. […]

[2] = system: ATF3 (activating transcription factor 3); assay: ATF3 immuno-histology in trigeminal ganglion, inflammatory keratitis model induced by LPS; type: in vivo, mice; details: LPS inflammation model; twice-daily instillation of 10 mM for 5 days
Description: as §1, §2

cornea = assay: Corneal inflammation by in vivo confocal microscopy in inflammatory model induced by LPS (corneal scratch); design: species or system mice C57Bl/6; details: twice-daily instillation of 10 mM for 5 consecutive days; scratch + LPS 50 μg (1× or 2×); evaluated on the 5th day
Method: A corneal epithelial lesion (abrasion designated “scratch” in the figures) is made on the right eye of male mice C57Bl/6, 8 weeks old, using a trephine (diameter 1.5 mm) on the anaesthetised animal (isoflurane). A drop (10 μl) of LPS (50 μg) is […] deposited on the injured area and is left in contact with the cornea until the animal awakens. The experimentalist ensures the animal awakens correctly, which occurs within two minutes following the intervention.
The first topical treatment using a solution of PBS (phosphate buffer pH=7.4) (1×) or a solution of compound 1 (10 mM of compound 1 in a solution of PBS (1×)) was carried out 2 h after the instillation of LPS. This treatment was extended 2 times a day for 5 days. Four animal cages were studied:
The eye inflammation of the mice was evaluated on the 5th day using a confocal microscope in vivo. This enable images to be obtained (cellular and intercellular definition) of the cornea including the corneal epithelium, the nerve plexus, the stroma and the endothelium thanks to a capsule (Tomocap)/corneal module of the apparatus placed in contact with the cornea. The morphological changes of all the cells constituting the cornea and the corneal nerves are easily observable and quantifiable. All of the animals were anaesthetised by intraperitoneal injection (ketamine 100 mg/kg and xylazine 10 mg/kg). […]

corneal epithelium = details: topical administration, versus non-treated corneas, cited from earlier work

SMILES | Iba1 in the trigeminal ganglion (coloration of activated microglial cells expressing Iba-1) versus PBS control group [1] | expression of ATF3 in the trigeminal ganglion versus PBS control group [2] | eye inflammation of the corneas (confocal images) compared to PBS 1× (cornea) | development of an oedema of the stroma (corneal epithelium; 12 h after treatment) | infiltration of immune cells (corneal epithelium)
CC(OC(=O)N[C@@H](C)P(=O)([O-])C[C@@H](Cc1ccc(-c2ccccc2)cc1)C(=O)N[C@@H](C)C(=O)[O-])OC(=O)C(C)C.[Na+].[Na+] (some centres unmarked) [compound 1] | considerably reduces the coloration of activated microglial cells expressing Iba-1; also recorded: reduce significantly | considerably reduces the expression of ATF3; also recorded: reduce significantly | less inflammatory |  | 
CN1CC[C@]23c4c5ccc(O)c4O[C@H]2[C@@H](O)C=C[C@H]3[C@H]1C5 [morphine] |  |  |  | retard the development of an oedema of the stroma | very few immune cells present
